One data set relates to HBV. The experiment in a line: anti HBV activity, HepG2.117 cell line, intracellular HBV DNA by realtime PCR. The data set is classed as cell-based. Conditions: HepG2.117 cell line (Tet-off), 3 days of treatment, intracellular HBV DNA quantified by realtime PCR, read-out: HBV-AVE-HepG2.117 EC50. Summed up: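 Readout was intracellular HBV DNA by real-time PCR (HBV-specific primers and probe) after 3 days of compound exposure. Serial dilutions were tested in duplicate on HepG2.117 cells, a stable inducible HBV producer in which replication is switched on when doxycycline is absent.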

The nature of data set [1]: Cytotoxicity in HepG2 cells, Resazurin assay. The note with it: human, HepG2 cells, TOX-HepG2-4 d CC50 (μM), HepG2 cells incubated for 4 days, viability by Resazurin assay. In general terms: The colour change of resazurin is a common sign of viable cells or microbes.
The mark [2] stands for this setting: Hepatitis B virus, HepG2.117, 72 h.

Like-named read-outs stand apart in the source and are kept apart here.

Regarding `Cc1cc(NC(=O)c2c3c(cn2C)S(=O)(=O)N[C@@H](C(O)C2CC2)CO3)ccc1F` (stereo in doubt), the melting point (in general, the temperature of the solid-liquid transition) was 234.7 °C.
The compound `Cc1sc2c(c1C(=O)Nc1ccc(F)c(F)c1)OCC(C)NS2(=O)=O` (centres unmarked) had a melting point of 221.5 °C.
In turn, `CCC(O)[C@@H]1COc2c(cn(C)c2C(=O)Nc2ccc(F)c(C(F)F)c2)S(=O)(=O)N1` (stereo in doubt) gave a melting point of 224.6 °C.
Same read-out and setting: the same measure for `CCC(O)[C@H]1COc2c(cn(C)c2C(=O)Nc2ccc(F)c(F)c2)S(=O)(=O)N1` (some centres unmarked): 214.6 °C.
In turn, `CC1CCc2c(cn(C)c2C(=O)Nc2ccc(F)c(F)c2)S(=O)(=O)N1` (centres unmarked) yielded a melting point of 229.8 °C.
On the same count and under the same terms, with `CCC(O)[C@@H]1COc2c(cn(C)c2C(=O)Nc2ccc(F)c(F)c2)S(=O)(=O)N1` (stereo in doubt) the figure was 212.6 °C; with `CCC(O)[C@H]1COc2c(cn(C)c2C(=O)Nc2ccc(F)c(C(F)F)c2)S(=O)(=O)N1` (some centres unmarked), 224.5 °C.
Same read-out and setting: with `CC(C)C(O)C1COc2c(cn(C)c2C(=O)Nc2ccc(F)c(C#N)c2)S(=O)(=O)N1` (racemic) the figure was 213.7 °C.
On the same count and under the same terms, with `CCC(O)[C@H]1COc2c(cn(C)c2C(=O)Nc2ccc(F)c(C#N)c2)S(=O)(=O)N1` (some centres unmarked) the figure was 252.2 °C.
`Cn1cc2c(c1C(=O)Nc1ccc(F)c(Cl)c1)OC[C@H](C(O)C1CC1)NS2(=O)=O` (stereo in doubt) yielded a melting point of 215.8 °C.
Same read-out and setting: with `Cn1cc2c(c1C(=O)Nc1ccc(F)c(C#N)c1)OC[C@H](C(O)C1CC1)NS2(=O)=O` (some centres unmarked) the figure was 233.9 °C; with `CC1C=Cc2c(csc2C(=O)Nc2ccc(F)c(F)c2)S(=O)(=O)N1` (centres unmarked), 220.8 °C.
Same read-out and setting: with `Cn1cc2c(c1C(=O)Nc1ccc(F)c(F)c1)OC[C@H](C(O)C1CC1)NS2(=O)=O` (some centres unmarked) the figure was 244.8 °C.
Consider `C[C@H]1CCc2c(cn(C)c2C(=O)Nc2ccnc(C(F)F)c2)S(=O)(=O)N1` [Compound 165, (3S)—N-[2-(difluoromethyl)-4-pyridyl]-3,7-dimethyl-1,1-dioxo-2,3,4,5-tetrahydropyrrolo[3,4-f]thiazepine-6-carboxamide], for which, in the data set on HBV (setting [2]), the EC50 (in general, the midpoint of the concentration-response curve) was 68 nM. Besides, in data set [1], the CC50 (as a rule, the concentration giving 50% cytotoxicity) at 4 days was > 25 µM.
The matching figures for `Cn1cc2c(c1C(=O)Nc1ccc(F)c(C(F)F)c1)CCC1(COC1)NS2(=O)=O` [Compound 137, N-[3-(difluoromethyl)-4-fluoro-phenyl]-7-methyl-1,1-dioxo-spiro[4,5-dihydro-2H-pyrrolo[3,4-f]thiazepine-3,3′-oxetane]-6-carboxamide]: 6 nM and > 25 µM.
As to `Cn1cc2c(c1C(=O)Nc1ccc(F)c(F)c1)OCC(C(O)c1ccccn1)NS2(=O)=O` (centres unmarked) [Compound 141a, N-(3,4-difluorophenyl)-3-[hydroxy(2-pyridyl)methyl]-7-methyl-1,1-dioxo-3,4-dihydro-2H-pyrrolo[3,4-b][1,4,5]oxathiazepine-6-carboxamide], in the data set on HBV (setting [2]), the EC50 was found to be 30 nM. In data set [1], the CC50 at 4 days is > 25 µM.
As to `CC[C@H](C)[C@H]1COc2c(cn(C)c2C(=O)Nc2ccc(F)c(F)c2)S(=O)(=O)N1` [Compound 23, (3 S)—N-(3,4-difluorophenyl)-7-methyl-3-[(1S)-1-methylpropyl]-1,1-dioxo-3,4-dihydro-2H-pyrrolo[3,4-b][1,4,5]oxathiazepine-6-carboxamide], in the data set with HBV (setting [2]), the EC50 is 5 nM. This compound gave a CC50 at 4 days in data set [1] of 10.6 µM.
Taken in the same sequence, the figures for `Cc1cc(NC(=O)c2c3c(cn2C)S(=O)(=O)N[C@@H](C(C)(C)O)CO3)ccc1F` [Compound 195, (3R)—N-(4-fluoro-3-methyl-phenyl)-3-(1-hydroxy-1-methyl-ethyl)-7-methyl-1,1-dioxo-3,4-dihydro-2H-pyrrolo[3,4-b][1,4,5]oxathiazepine-6-carboxamide] were 7 nM and > 25 µM.
The matching figures for `C[C@H](O)[C@H]1COc2c(cn(C)c2C(=O)Nc2ccc(F)c(C#N)c2)S(=O)(=O)N1` [Compound 65, (3R)—N-(3-cyano-4-fluoro-phenyl)-3-[(1S)-1-hydroxyethyl]-7-methyl-1,1-dioxo-3,4-dihydro-2H-pyrrolo[3,4-b][1,4,5]oxathiazepine-6-carboxamide]: 7 nM and > 25 µM.
Taken in the same sequence, the figures for `Cn1cc2c(c1C(=O)Nc1ccc(F)c(C(F)F)c1)CC[C@H](CO)NS2(=O)=O` [Compound 184, (3R)—N-[3-(difluoromethyl)-4-fluoro-phenyl]-3-(hydroxymethyl)-7-methyl-1,1-dioxo-2,3,4,5-tetrahydropyrrolo[3,4-f]thiazepine-6-carboxamide] were 20 nM and > 25 µM.
Consider `CC1COc2c(ccc(F)c2C(=O)Nc2ccc(F)c(F)c2)S(=O)(=O)N1` (centres unmarked) [Compound 12, N-(3,4-difluorophenyl)-7-fluoro-3-methyl-1,1-dioxo-3,4-dihydro-2H-5,1λ^6,2-benzoxathiazepine-6-carboxamide], for which the EC50 with HBV (setting [2]) turned out to be 350 nM. Further, the CC50 at 4 days in data set [1] is > 25 µM.
Regarding `Cc1cc(CC2(C)COc3c(cn(C)c3C(=O)Nc3ccnc(C(F)F)c3)S(=O)(=O)N2)no1` (single isomer, unassigned) [Compound 209a, N-[2-(difluoromethyl)-4-pyridyl]-3,7-dimethyl-3-[(5-methylisoxazol-3-yl)methyl]-1,1-dioxo-2,4-dihydropyrrolo[3,4-b][1,4,5]oxathiazepine-6-carboxamide], the EC50 in the data set with HBV stood at 60 nM. In data set [1], the cytotoxic concentration (CC50) at 4 days is > 25 µM.
As to `Cn1cc2c(c1C(=O)Nc1ccc(F)c(C#N)c1)CCC(C(F)(F)F)NS2(=O)=O` (racemic) [Compound 60, N-(3-cyano-4-fluoro-phenyl)-7-methyl-1,1-dioxo-3-(trifluoromethyl)-2,3,4,5-tetrahydropyrrolo[3,4-f]thiazepine-6-carboxamide], the EC50 in the data set on HBV (setting [2]) worked out at 13 nM. In addition, the CC50 at 4 days in data set [1] was > 25 µM.
Taken in the same sequence, the figures for `CC1/C=C\Cc2c(cn(C)c2C(=O)Nc2ccc(F)c(F)c2)S(=O)(=O)N1` (centres unmarked) [Compound 5, (4Z)—N-(3,4-difluorophenyl)-3,8-dimethyl-1,1-dioxo-3,6-dihydro-2H-pyrrolo[3,4-g]thiazocine-7-carboxamide] were 180 nM and > 25 µM.
Taken in the same sequence, the figures for `COCOC(c1ccccn1)C1COc2c(cn(C)c2C(=O)Nc2ccc(F)c(F)c2)S(=O)(=O)N1` (centres unmarked) [Compound 129, N-(3,4-difluorophenyl)-3-[methoxymethoxy(2-pyridyl)methyl]-7-methyl-1,1-dioxo-3,4-dihydro-2H-pyrrolo[3,4-b][1,4,5]oxathiazepine-6-carboxamide] were 12 nM and > 25 µM.
Taken in the same sequence, the figures for `Cn1cc2c(c1C(=O)Nc1ccc(F)c(C#N)c1)OC[C@H](Cc1cccnc1)NS2(=O)=O` [Compound 71, (3S)—N-(3-cyano-4-fluoro-phenyl)-7-methyl-1,1-dioxo-3-(3-pyridylmethyl)-3,4-dihydro-2H-pyrrolo[3,4-b][1,4,5]oxathiazepine-6-carboxamide] were 3 nM and > 25 µM.
Consider `CC(C)C1C=Cc2c(cn(C)c2C(=O)Nc2ccc(F)c(C(F)F)c2)S(=O)(=O)N1` (centres unmarked) [Compound 82, N-[3-(difluoromethyl)-4-fluoro-phenyl]-3-isopropyl-7-methyl-1,1-dioxo-2,3-dihydropyrrolo[3,4-f]thiazepine-6-carboxamide], for which the EC50 in the data set on HBV (setting [2]) came out at 4 nM. Moreover, in data set [1], the CC50 at 4 days is > 25 µM.
Taken in the same sequence, the figures for `CN1CCC(C2COc3c(cn(C)c3C(=O)Nc3ccc(F)c(F)c3)S(=O)(=O)N2)CC1` (centres unmarked) [Compound 76, N-(3,4-difluorophenyl)-7-methyl-3-(1-methyl-4-piperidyl)-1,1-dioxo-3,4-dihydro-2H-pyrrolo[3,4-b][1,4,5]oxathiazepine-6-carboxamide] were 220 nM and > 25 µM.
The matching figures for `Cn1cc2c(c1C(=O)Nc1ccc(F)c(F)c1)OCC(C1CCN(CC(F)(F)F)CC1)NS2(=O)=O` (centres unmarked) [Compound 78, N-(3,4-difluorophenyl)-7-methyl-1,1-dioxo-3-[1-(2,2,2-trifluoroethyl)-4-piperidyl]-3,4-dihydro-2H-pyrrolo[3,4-b][1,4,5]oxathiazepine-6-carboxamide]: 56 nM and > 25 µM.
The matching figures for `Cn1cc2c(c1C(=O)Nc1ccc(F)c(F)c1)OC[C@H](c1ccccc1)NS2(=O)=O` [Compound 26, (3S)—N-(3,4-difluorophenyl)-7-methyl-1,1-dioxo-3-phenyl-3,4-dihydro-2H-pyrrolo[3,4-b][1,4,5]oxathiazepine-6-carboxamide]: 27 nM and > 25 µM.
Consider `Cn1cc2c(c1C(=O)Nc1ccc(F)c(F)c1)CCC1(COC1)NS2(=O)=O` [Compound 131, N-(3,4-difluorophenyl)-7-methyl-1,1-dioxo-spiro[4,5-dihydro-2H-pyrrolo[3,4-f]thiazepine-3,3′-oxetane]-6-carboxamide], for which, in the data set with HBV (setting [2]), the EC50 worked out at 23 nM. For the same compound, in data set [1], the CC50 at 4 days was > 25 µM.
The matching figures for `CCC(O)[C@H]1COc2c(cn(C)c2C(=O)Nc2ccc(F)c(F)c2)S(=O)(=O)N1` (stereo partly drawn) [Compound 130a, (3R)—N-(3,4-difluorophenyl)-3-(1-hydroxypropyl)-7-methyl-1,1-dioxo-3,4-dihydro-2H-pyrrolo[3,4-b][1,4,5]oxathiazepine-6-carboxamide]: 18 nM and > 25 µM.
Taken in the same sequence, the figures for `CC[C@@H]1COc2c(cn(C)c2C(=O)Nc2ccc(F)c(F)c2)S(=O)(=O)N1` [Compound 20, (3R)—N-(3,4-difluorophenyl)-3-ethyl-7-methyl-1,1-dioxo-3,4-dihydro-2H-pyrrolo[3,4-b][1,4,5]oxathiazepine-6-carboxamide] were 58 nM and > 25 µM.
